Laboratory results from US8367340B2, “Prognostic tools to predict the efficacy of drug treatment targeting chromatin DNA or enzymes acting on DNA” (University of Maryland, Baltimore, priority 2008, dated 2013).

System: c-myc P2 promoter
Experiment: PCR-Stop assay with real time PCR on genomic DNA of drug-treated RKO colon cancer cells
Assay type: cell-based, human
Details: 10 ng/ml TSA 4 h followed by 25 μM VP16 1 h, compared to the reverse combination and the single drug treatments
Source text: Top2 inhibitors induce preferential damage within the c-myc locus and more particularly within the P2 promoter of c-myc. […] By way of non-limiting example, the 3′ end region may be amplified using the following primers of the human c-myc gene: Forward: 5′[…]3′ [SEQ ID NO: 1], Reverse: 5′[…]3′ [SEQ ID NO:2]. Other suitable primers may be used, as would be apparent to those skilled in the art.
According to example embodiments, a comparative threshold (Ct) method may be used to quantify the results obtained by the real-time RT-PCR. The comparative Ct method involves comparing the Ct values of the samples of interest with a control or calibrator such as a non-treated sample from normal tissue. The Ct values of both the calibrator and the samples of interest are normalized to an appropriate endogenous housekeeping gene. Non-limiting example quantification methods include identifying the cycle number at which the reporter dye emission intensities rises above background noise: this cycle number is called the threshold number (Ct). The Ct is proportional to the breaks introduced in the target template; the higher the amount of breakage in the given target template, the higher the Ct measured.
By way of non-limiting example, the 3′ region of c-myc gene that has no type II topoisomerase cleavage site may be used as a reference. […]

COc1cc([C@@H]2c3cc4c(cc3[C@@H](O[C@@H]3O[C@@H]5CO[C@@H](C)O[C@H]5[C@H](O)[C@H]3O)[C@H]3COC(=O)[C@H]23)OCO4)cc(OC)c1O [VP16, etoposide]
percentage of breaks at c-myc locus (type II topoisomerase mediated DNA breaks in c-myc P2 promoter): considerably higher percentage of breaks
